Consider 17 compounds from patent publication US10472341B2, “Bicyclic tetrahydrothiazepine derivatives useful for the treatment of neoplastic and/or infectious diseases” (APEIRON BIOLOGICS AG, priority 2015, dated 2019).

The test system of assay [1] is aCD3/aCD28-stimulated human CD4+-T-cells. Kind of assay: IL-2 production and activation markers in aCD3/aCD28 stimulated isolated human CD4+-T-cells. It is filed as cell-based. To be noted: IL-2 production at 3 μM compound. How it is done:
• Buffy coat content was transferred to sterile plastic bottle and filled up to 480 ml with PBS, and distributed equally to 16×50 ml tubes (30 ml/tube) • Underlayed with ˜11 ml Lymphoprep and centrifuged 20 min (2200 rpm) • The interphase containing lymphocytes was taken off with transfer pipette, cells were washed twice with PBS and pooled to one tube to determine cell count (Coulter Diff ACT) Isolation of Immune Cell Subfractions from PBMCs by MACS • PBMCs were resuspended in MACS buffer (80 μl MACS-buffer/10^7 cells) and cells were isolated with Auto-MACS device using respective kits following manufacturer's recommendations TCR Stimulation and Measurement of T Cell Activation
Isolated T cells were plated in Xvivo medium at 1.5*10 ^5 cells per in 96 well culture plates and TCR-stimulated with anti-CD3/28 mAbs in the presence of compound as indicated. Cytokine production was determined at 24 h or 48 h following TCR stimulation in cell culture supernatants using commercially available ELISA kits (BD and eBioscience) as recommended by the manufacturer. T cell proliferation and CD25 expression (CD25-PC5 reagent purchased from Beckman Coulter) was determined by flow cytometry (Beckman-Coulter FC500) and analysed with Kaluza Software. For measurement of CD69 expression, isolated CD4 and CD8 T cells were plated in Xvivo medium at […] per in 96 well culture plates and TCR-stimulated with anti-CD3/28 mAbs in the presence of compound. CD69 expression was determined at 24 h following TCR stimulation by flow cytometry (CD4eF450, CD8APCeF780 and CD69-PC7 reagent purchased from eBioscience) and analysed with Kaluza Software.
Buffy coats were obtained from Austrian Red Cross, diluted 3 fold with PBS and layered onto an isotonic Ficoll separating solution d=1.077 g/m in 50 ml centrifuge tubes. The tubes were centrifuged at 914 g for 25 min at room temperature with the brakes off. The PBMC layer was removed and washed twice with ice-cold PBS. CD4 T cells were isolated using CD4 microbeads (Milteny) and the AutoMACS device following manufacturer's instructions.
Compound examples of the present invention were classified according to the following activity criteria and are listed in Table 4a: • Activity Class A: IL-2 production at 3 μM compound concentration >10 ng/mL • Activity Class B: IL-2 production at 3 μM compound concentration between 2-10 ng/mL • Activity Class C: IL-2 production at 3 μM compound concentration between 2-fold increase as compared to mean IL-2 production of stimulated cells in the absence of compounds and <2 ng/mL

The subject of assay [2] is aCD3/aCD28-stimulated human PBMCs. Kind of assay: Cytokine production in aCD3/aCD28 stimulated human PBMCs. To be noted: PBMC, 18 h. It counts as cell-based. How it is done:
In order to determine the immune modulatory effect of compounds of compounds of the present invention in human PBMCs, compounds were assessed in the following assay set-up:
Buffy coats were obtained from a local hospital, diluted 3 fold with PBS and layered onto an isotonic Ficoll separating solution d=1.077 g/mL in 50 mL centrifuge tubes. The tubes were centrifuged at 914 g for 25 min at room temperature with the brakes off. The PBMC layer was removed and washed twice with ice-cold PBS. Erythrocytes were lysed by addition of ddH2O and cells were resuspended in X-Vivo15 (Lonza).
1e6 cells/mL were stimulated with soluble anti CD3/CD28 antibodies (1 μg/mL both, clones OKT3 and 28.2) in the presence of described compounds. Cells were incubated for 18 h at 37° C., 5% CO2. Assay plates were centrifuged at 400 g for 5 min and supernatants harvested. Cytokine concentration in tissue culture supernatants were determined with MSD or HTRF kits (MSD and Cisbio), according to manufacturer's instructions.

Where [3] appears, read: enhancement of IFN-γ production, read-out: Activity Class IFN-γ.
[4] abbreviates: enhancement of IL-2 production, read-out: Activity Class IL-2.

SMILES strings stand for the structures. Structures can show the parent of a compound that is named as a salt. Where two headings read alike, the source gives them in different places. Some results are limits rather than exact numbers.

As to `CC(=O)NCCCCCOc1ccc(CNC(=O)c2ccc3c(c2)N(Cc2ccc(OC(F)(F)F)cc2)C(=O)[C@@H](N)CS3)cc1.Cl` [Example 19, (3R)-3-amino-N-({4-[(5-acetamidopentyl)oxy]phenyl}methyl)-4-oxo-5-{[4-(trifluoromethoxy)phenyl]methyl}-2,3,4,5-tetrahydro-1,5-benzothiazepine-7-carboxamide hydrochloride], the “Activity Class CD4+” value in assay [1] is “C (IL-2 production at 3 μM compound concentration between 2-fold increase as compared to mean IL-2 production of stimulated cells in the absence of compounds and <2 ng/mL)”.

For the compound `CCCONC(=O)c1ccc2c(c1)N(Cc1ccc(Cl)cc1)C(=O)[C@@H](N)CS2(=O)=O.Cl` [Example 82, (3R)-3-amino-5-[(4-chlorophenyl)methyl]-1,1,4-trioxo-N-propoxy-2,3,4,5-tetrahydro-1λ^6,5-benzothiazepine-7-carboxamide hydrochloride], the “Activity Class CD4+” value in assay [1] was “C (IL-2 production at 3 μM compound concentration between 2-fold increase as compared to mean IL-2 production of stimulated cells in the absence of compounds and <2 ng/mL)”.

On to `Cl.N[C@H]1CS(=O)(=O)c2cc(F)c(C(=O)N[C@@H]3CC3(F)F)cc2N(Cc2ccc(Cl)cc2)C1=O` (single isomer, unassigned) [Example 106], for which, in assay [1], the “Activity Class CD4+” value is “B (IL-2 production at 3 μM compound concentration between 2-10 ng/mL)”.

With `C[C@H](NC(=O)c1ccc2c(c1)N(Cc1ccc(Cl)cc1)C(=O)[C@@H](N)CS2)c1ccc(F)cc1.Cl` [Example 49, (3R)-3-amino-5-[(4-chlorophenyl)methyl]-N-[(1S)-1-(4-fluorophenyl)ethyl]-4-oxo-2,3,4,5-tetrahydro-1,5-benzothiazepine-7-carboxamide hydrochloride], in assay [1], the “Activity Class CD4+” value was “C (IL-2 production at 3 μM compound concentration between 2-fold increase as compared to mean IL-2 production of stimulated cells in the absence of compounds and <2 ng/mL)”.

Consider `COc1ccc(CNC(=O)c2cc3c(cc2F)SC[C@H](NCCCCCNC(=O)OC(C)(C)C)C(=O)N3Cc2ccc(Cl)cc2)cc1` [Example 115, tert-butyl N-(5-{[(3R)-5-[(4-chlorophenyl)methyl]-8-fluoro-7-{[(4-methoxyphenyl)methyl]carbamoyl}-4-oxo-2,3,4,5-tetrahydro-1,5-benzothiazepin-3-yl]amino}pentyl)carbamate], for which the “Activity Class CD4+” value in assay [1] was “C (IL-2 production at 3 μM compound concentration between 2-fold increase as compared to mean IL-2 production of stimulated cells in the absence of compounds and <2 ng/mL)”.

For `CC(C)(C)c1cc(NC(=O)c2ccc3c(c2)N(Cc2ccc(Cl)cc2)C(=O)[C@@H](N)CS3)no1.Cl` [Example 24, (3R)-3-amino-N-(5-tert-butyl-1,2-oxazol-3-yl)-5-[(4-chlorophenyl)methyl]-4-oxo-2,3,4,5-tetrahydro-1,5-benzothiazepine-7-carboxamide hydrochloride], the “Activity Class CD4+” value in assay [1] is “C (IL-2 production at 3 μM compound concentration between 2-fold increase as compared to mean IL-2 production of stimulated cells in the absence of compounds and <2 ng/mL)”.

`N[C@H]1CS(=O)(=O)c2ccc(C(=O)NCCCC(F)(F)F)cc2N(Cc2ccccc2)C1=O` [Example 162, (3R)-3-amino-5-benzyl-1,1,4-trioxo-N-(4,4,4-trifluorobutyl)-2,3,4,5-tetrahydro-1λ^6,5-benzothiazepine-7-carboxamide]: the EC50 in assay [2] (setting [3]) and in assay [2] (setting [4]) was over 5.01 µM in each case.

Regarding `C[C@@H]1[C@H](N)C(=O)N(Cc2ccc(Cl)cc2)c2cc(C(=O)NCCCC(F)(F)F)c(F)cc2S1(=O)=O` [Example 118, (2R,3R)-3-amino-5-[(4-chlorophenyl)methyl]-8-fluoro-2-methyl-1,1,4-trioxo-N-(4,4,4-trifluorobutyl)-2,3,4,5-tetrahydro-1λ^6,5-benzothiazepine-7-carboxamide hydrochloride], the figures for the EC50 in assay [2] (setting [3]) and in assay [2] (setting [4]) were under 1.58 µM and 1.58 to 5.01 µM, respectively.

Turning to `CCN[C@H]1CS(=O)(=O)c2cc(F)c(C(=O)NCCCC(F)(F)F)cc2N(Cc2ccc(Cl)cc2)C1=O` [Example 182, (3R)-5-[(4-chlorophenyl)methyl]-3-(ethylamino)-8-fluoro-1,1,4-trioxo-N-(4,4,4-trifluorobutyl)-2,3,4,5-tetrahydro-1λ^6,5-benzothiazepine-7-carboxamide], the EC50 in assay [2] (setting [3]) was 1.58 to 5.01 µM; in assay [2] (setting [4]), over 5.01 µM.

On to `COCCOCCNC(=O)c1cc2c(cc1F)S(=O)(=O)C[C@H](N)C(=O)N2Cc1ccc(Cl)cc1` [Example 172, (3R)-3-amino-5-[(4-chlorophenyl)methyl]-8-fluoro-N-[2-(2-methoxyethoxy)ethyl]-1,1,4-trioxo-2,3,4,5-tetrahydro-1λ^6,5-benzothiazepine-7-carboxamide], for which the EC50 in assay [2] (setting [3]) was 1.58 to 5.01 µM; in assay [2] (setting [4]) it was over 5.01 µM.

On to `N[C@H]1CS(=O)(=O)c2ccc(C(=O)NCC3CCOC3)cc2N(Cc2ccc(Cl)cc2)C1=O` (stereo partly drawn) [Example 157, (3R)-3-amino-5-[(4-chlorophenyl)methyl]-1,1,4-trioxo-N-[(oxolan-3-yl)methyl]-2,3,4,5-tetrahydro-1λ^6,5-benzothiazepine-7-carboxamide], for which the EC50 in assay [2] (setting [3]) and in assay [2] (setting [4]) was over 5.01 µM in each case.

Consider `N[C@H]1CS(=O)(=O)c2ccc(C(=O)N[C@@H]3CCOC3)cc2N(Cc2ccc(Cl)cc2)C1=O` [Example 156, (3R)-3-amino-5-[(4-chlorophenyl)methyl]-1,1,4-trioxo-N-[(3R)-oxolan-3-yl]-2,3,4,5-tetrahydro-1λ^6,5-benzothiazepine-7-carboxamide], for which the EC50 in assay [2] (setting [3]) and in assay [2] (setting [4]) was over 5.01 µM in each case.

With `COCCNC(=O)c1cc2c(cc1F)S(=O)(=O)C[C@H](N)C(=O)N2Cc1ccc(Cl)cc1` [Example 120, (3R)-3-amino-5-[(4-chlorophenyl)methyl]-8-fluoro-N-(2-methoxyethyl)-1,1,4-trioxo-2,3,4,5-tetrahydro-1λ^6,5-benzothiazepine-7-carboxamide hydrochloride], the EC50 in assay [2] (setting [3]) and in assay [2] (setting [4]) was over 5.01 µM in each case.

With `COc1cccc(CN2C(=O)[C@@H](N)CS(=O)(=O)c3ccc(C(=O)NC4CC(F)(F)C4)cc32)c1` [Example 149, (3R)-3-amino-N-(3,3-difluorocyclobutyl)-5-[(3-methoxyphenyl)methyl]-1,1,4-trioxo-2,3,4,5-tetrahydro-1λ^6,5-benzothiazepine-7-carboxamide], the EC50 in assay [2] (setting [3]) and in assay [2] (setting [4]) was over 5.01 µM in each case.

On to `COc1ccc(CN2C(=O)[C@@H](N)CS(=O)(=O)c3ccc(C(=O)N[C@@H]4CC4(F)F)cc32)cc1` [Example 161, (3R)-3-amino-N-[(1R)-2,2-difluorocyclopropyl]-5-[(4-methoxyphenyl)methyl]-1,1,4-trioxo-2,3,4,5-tetrahydro-1λ^6,5-benzothiazepine-7-carboxamide], for which the EC50 in assay [2] (setting [3]) and in assay [2] (setting [4]) was over 5.01 µM each time.

For `Cc1nc(-c2ccc(CN3C(=O)[C@@H](N)CS(=O)(=O)c4ccc(C(=O)NCCCC(F)(F)F)cc43)cc2)no1` [Example 119, (3R)-3-amino-5-{[4-(5-methyl-1,2,4-oxadiazol-3-yl)phenyl]methyl}-1,1,4-trioxo-N-(4,4,4-trifluorobutyl)-2,3,4,5-tetrahydro-1λ^6,5-benzothiazepine-7-carboxamide hydrochloride], the EC50 was 1.58 to 5.01 µM in assay [2] (setting [3]) and over 5.01 µM in assay [2] (setting [4]).

Regarding `N[C@H]1CS(=O)(=O)c2cc(F)c(C(=O)NC3CCOCC3)cc2N(Cc2ccc(Cl)cc2)C1=O` [Example 144, (3R)-3-amino-5-[(4-chlorophenyl)methyl]-8-fluoro-N-(oxan-4-yl)-1,1,4-trioxo-2,3,4,5-tetrahydro-1λ^6,5-benzothiazepine-7-carboxamide], the figures for the EC50 in assay [2] (setting [3]) and in assay [2] (setting [4]) were 1.58 to 5.01 µM and over 5.01 µM, respectively.
